Source: patent US9357775B2, “Rosin-derived cationic compounds and polymers” (University of South Carolina, priority 2011, dated 2016)

Assays:
Format in all cases: cell-based
Gram-positive bacteria = experiment: MIC determination by disk-diffusion method, Gram-positive bacteria
Description: (§1) Tests for antimicrobial activities were carried out using rosin-derived quaternary ammonium 1 and their polymer 4 with a number-average molecular weight of 7.5×105 g/mol. The antimicrobial susceptibilities of several Gram-negative bacteria (e.g. Pseudomonas aeruginosa, Escherichia coli, Enterobacter aerogenes, and Klebsiella pneumonia) and Gram-positive bacteria (Staphylococcus aureus and Bacillus cereus) were determined. These strains were purified at laboratory and maintained at −70° C. in a 1:1 mixture of glycerol and dimethylsulfoxide (DMSO). To conduct the assays, a small volume of actively-growing cultures of each bacterial strain is spread on agar plates, and incubated at 28° C. for 24 h to form a ‘bacterial lawn’ covering the plate surface. Then 6 mm (dia) filter discs are added to the surface, and 30 ul samples (containing each compound at several concentrations dissolved in DMSO) are applied to the disc surfaces, and the plates are incubated.
(§2) Considering the potential applications of antimicrobial compounds and polymers as coatings for food packaging, medical implants and devices, and antifouling surfaces, all subsequent MIC determinations were carried out using the disk-diffusion method.

Gram-negative bacteria = experiment: MIC determination by disk-diffusion method, Gram-negative bacteria
Description: as §1, §2

[1] = system: different bacterial strains; experiment: Control experiments with residual copper catalysts and solvents; settings: control for residual catalyst/solvent
Description: To further confirm that the antimicrobial activities were not caused by residual copper catalysts and solvents (i.e. methanol), control experiments were carried out using these reagents against different bacterial strains.

Compound | antimicrobial activity (control experiments) (Gram-positive bacteria) | antimicrobial activity (control experiments) (Gram-negative bacteria) | toxicity against bacterial strains [1]
CC[N+](CC)(CC)CC.[Br-] [TEAB, tetraethylammonium bromide] | no activities | no activities | –
CO [methanol] | – | – | did not exhibit significant toxicity
